Several values for one entry are separate records, joined by “and”; a condition that tells them apart may be missing. Equal entries are not always repeated. Marks after values point to notes of the source that are not given here.
Assays:
NK-2 receptor = molecular target: T1, NK-2 receptor (Homo sapiens, UniProt P21452); test: NK-2 receptor inhibition; assay type: binding
T1 sequence (P21452 1-398): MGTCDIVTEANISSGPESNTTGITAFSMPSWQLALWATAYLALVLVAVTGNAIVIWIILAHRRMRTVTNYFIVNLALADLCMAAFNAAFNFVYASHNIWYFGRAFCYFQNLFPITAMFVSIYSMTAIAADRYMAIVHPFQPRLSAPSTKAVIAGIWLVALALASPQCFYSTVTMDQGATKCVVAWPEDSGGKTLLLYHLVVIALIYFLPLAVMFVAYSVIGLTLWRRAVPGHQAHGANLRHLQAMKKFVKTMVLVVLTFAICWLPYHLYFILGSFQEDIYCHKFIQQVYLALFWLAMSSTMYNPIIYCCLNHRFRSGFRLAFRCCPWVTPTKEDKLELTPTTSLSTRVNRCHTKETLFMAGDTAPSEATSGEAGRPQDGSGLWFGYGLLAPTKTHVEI

NK-1 receptor = molecular target: T2, NK-1 receptor (Meriones unguiculatus, UniProt Q5DUB1); test: NK-1 agonist (GR73632, icv)-induced foot-tapping behavior in gerbils; assay type: in vivo; details: gerbil, 0.1 mg/kg po
T2 construct: centrally acting NK-1 receptor antagonist in vivo in the gerbil; from tissue; host or cells: brain of living Mongolian gerbils
T2 sequence (Q5DUB1 whole entry): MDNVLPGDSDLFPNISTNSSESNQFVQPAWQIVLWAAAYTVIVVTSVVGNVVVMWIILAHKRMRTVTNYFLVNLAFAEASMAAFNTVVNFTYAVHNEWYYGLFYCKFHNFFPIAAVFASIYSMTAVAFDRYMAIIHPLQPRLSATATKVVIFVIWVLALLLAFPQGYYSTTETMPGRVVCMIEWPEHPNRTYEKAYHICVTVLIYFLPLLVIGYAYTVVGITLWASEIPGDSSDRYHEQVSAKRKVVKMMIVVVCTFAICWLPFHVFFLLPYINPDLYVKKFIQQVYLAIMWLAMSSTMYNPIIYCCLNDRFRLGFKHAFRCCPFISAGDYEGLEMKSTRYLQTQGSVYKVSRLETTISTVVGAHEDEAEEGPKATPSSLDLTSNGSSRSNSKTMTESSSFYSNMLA
Procedure: Male Mongolian gerbils (Harlan Sprague Dawley, Indianapolis, IN) weighing 26 to 40 grams are administered the selective neurokinin-1 receptor agonist GR73632 (3 pmol) via direct, vertical, free-hand intracerebroventricular (icy) injection to a depth of 4.5 mm below bregma with a cuffed 27-gauge needle attached to a 50 μl Hamilton syringe. Immediately after injection, animals are placed individually into isolated chambers with pressure-sensitive velocimeter platform floors (San Diego Instruments acoustic startle apparatus) that detect and quantify vibration. The San Diego Instruments “SR” DOS-based computer program is used on a PC to record the number of foot-taps over the following 6 to 10 minutes, beginning 30 seconds after the floor is lightly tapped. […] The total number and average intensity of events over the duration is determined. Total number of taps is analyzed with one-way ANOVA and post-hoc Dunnett's test using JMP statistical software.
A dose-response curve (with doses of 0.3, 1, 3 and 10 pmols, icy) is initially generated with the NK-1 agonist GR73632.
NK-1 antagonists are tested for their ability to attenuate GR73632-induced foot tapping. NK-1 antagonists are administered (po) via oral feeding tube at doses and time points specified in each experiment. […]
NK-1 antagonists are administered at multiple doses (at least 3; one dose per animal) and response to GR73632 is measured. […]

[1] = tested on: apomorphine-induced emesis; test: Emetic challenge study (apomorphine-induced emesis) in beagle dogs; assay type: in vivo, beagle dog; details: for Total No. Emetic Episodes: apomorphine 0.1 mg/kg iv 2 hours later, five dogs, APO control 28
Procedure: Over the five (5) weeks of the study, each animal receives each of the treatments, but only one per week. The purpose of this study is to determine if tradipitant suppresses apomorphine-induced emesis.
The mid dose of tradipitant is the approximate half-log interval between the low and high doses.
All animals are dosed over a period of five (5) weeks, with each dog receiving one of five different treatments on each day of dosing.
All dogs are fasted overnight prior to each treatment day and then fed approximately one (1) hour after oral dosing (approximately one (1) hour prior to administration of apomorphine). Individual doses are adjusted weekly for changes in body weight.
The dose regimen consists of a 5×5 Latin square design, in which each subject receives 1 dose or dose combination per week (6 day washout) as shown in Table 3 below.

[2] = Plasma concentration 2 hours post-dose in beagle dogs; assay type: in vivo; details: Dog 1-5
Procedure: All animals are dosed over a period of five (5) weeks, with each dog receiving one of five different treatments on each day of dosing. […] In cases where apomorphine is administered alone, without prior treatment with tradipitant or aprepitant, apomorphine is given at approximately the same time as when given in combination with tradipitant or aprepitant.

[3] = tested on: small bowel transit and gastric emptying; test: Clinical study of gastrointestinal motility (gamma scintigraphy); assay type: in vivo, human; details: healthy subjects, 20 mg or 200 mg single oral dose; study underpowered for this parameter
Procedure: A single-center, randomized, double-blind, placebo-controlled study is conducted to investigate the effect of tradipitant on small bowel transit time. A total of 15 healthy subjects, including 12 men and 3 women between the ages of 19 and 63 years, are enrolled in the study and receive at least 1 dose of study medication. A total of 13 subjects complete the study. Subjects are randomized to receive 20 mg of tradipitant, 200 mg of tradipitant, or placebo as a single oral dose within each of 3 periods, co-administered with a capsule radiolabeled with a maximum of 1MBq ^111In. Four hours post-dose, all subjects also receive a second capsule radiolabeled with a maximum of 4MBq ^99mTc. Each subject receives all 3 doses during the study. For all dosing regimens, in vivo gamma scintigraphic studies are performed at predetermined intervals, and the following scintigraphic parameters are analyzed: onset and completion of gastric emptying, onset and completion of colon arrival, initiation and completion of small bowel transit, and initial and complete disintegration of the capsule (anatomical location and time).

SMILES: O=C(c1ccccc1Cl)c1cccnc1-c1nnn(Cc2cc(C(F)(F)F)cc(C(F)(F)F)c2)c1-c1ccncc1 [Tradipitant, {2-[1-(3,5-bistrifluoromethylbenzyl)-5-pyridin-4-yl-1H-[1,2,3]triazol-4-yl]-pyridin-3-yl}-(2-chlorophenyl)-methanone]
- inhibition at NK-2 receptor (NK-2 receptor): no significant inhibition
- time after administration up to which foot-tapping behavior is significantly inhibited (NK-1 receptor): up to 7 hours
- Total No. Emetic Episodes ([1]; 0.3 mg/kg oral): 1**
- Total No. Emetic Episodes ([1]; 1.0 mg/kg oral): 1**
- Total No. Emetic Episodes ([1]; 3.0 mg/kg oral): 1**
- effect against apomorphine-induced emesis ([1]; each dose tested (0.3, 1.0, and 3.0 mg/kg)): effective
- Concentration of tradipitant in plasma, individual dogs ([2]; 0.3 mg/kg oral): 90.93 ng/mL and 83.38 ng/mL and 22.59 ng/mL and 51.20 ng/mL and 41.33 ng/mL
- Concentration of tradipitant in plasma, individual dogs ([2]; 1.0 mg/kg oral): 240.84 ng/mL and 100.97 ng/mL and 61.56 ng/mL and 175.58 ng/mL and 86.49 ng/mL
- Concentration of tradipitant in plasma, individual dogs ([2]; 3.0 mg/kg oral): 316.20 ng/mL and 682.91 ng/mL and 119.79 ng/mL and 122.73 ng/mL and 256.58 ng/mL
- effect on gastric emptying [3]: No effect

Reference: patent publication US20240299373A1, “IMPROVED USE OF TRADIPITANT IN MOTION SICKNESS” (Vanda Pharmaceuticals Inc., priority 2023, published 2024)
